Like-named read-outs stand apart in the source and are kept apart here.
How the values were obtained:
NLRP3 inflammasome = assay: cytokines released into the culture medium after LPS+ATP activation (ELISA); format: cell-based; conditions: for IL-1β cytokine release: in vitro treatment, Figure 9; for IC50: estimated inhibitory capacity
Protocol: (§1) For biological assays, the THP-1 cell line (monocytes) was used and differentiated into macrophages using phorbol-12-myristate-13-acetate (PMA). They were then stimulated with 200 ng/mL ultrapure LPS for 4 hours, minus the negative control condition, to activate NLRP3 expression. At the same time, the necessary volume of the starting stock of each compound to be tested was added to reach the test concentration. After 4 h incubation at 37 °C, 5 mM ATP was added […] and incubated for 30 min to activate NLRP3 assembly. For NLRP1 activation, Valboropro, a specific inducer of this protein was used at 1µM for 24 hours. Protein expression levels were studied by western blot as a proteomic study and inflammation levels by determination of cytokines released into the medium by immunoassay techniques (ELISA).

NLRP3 = target: T1, NLRP3 (Homo sapiens, UniProt Q96P20); assay: in vitro model of NLRP3 induction (LPS + ATP) in PMA-differentiated THP-1 macrophages, protein expression by western blot; format: cell-based
T1 construct: the THP-1 cell line (monocytes) was used and differentiated into macrophages; endogenous in cells; host or cells: THP-1 monocytes differentiated into macrophages with PMA
T1 sequence (Q96P20 whole entry): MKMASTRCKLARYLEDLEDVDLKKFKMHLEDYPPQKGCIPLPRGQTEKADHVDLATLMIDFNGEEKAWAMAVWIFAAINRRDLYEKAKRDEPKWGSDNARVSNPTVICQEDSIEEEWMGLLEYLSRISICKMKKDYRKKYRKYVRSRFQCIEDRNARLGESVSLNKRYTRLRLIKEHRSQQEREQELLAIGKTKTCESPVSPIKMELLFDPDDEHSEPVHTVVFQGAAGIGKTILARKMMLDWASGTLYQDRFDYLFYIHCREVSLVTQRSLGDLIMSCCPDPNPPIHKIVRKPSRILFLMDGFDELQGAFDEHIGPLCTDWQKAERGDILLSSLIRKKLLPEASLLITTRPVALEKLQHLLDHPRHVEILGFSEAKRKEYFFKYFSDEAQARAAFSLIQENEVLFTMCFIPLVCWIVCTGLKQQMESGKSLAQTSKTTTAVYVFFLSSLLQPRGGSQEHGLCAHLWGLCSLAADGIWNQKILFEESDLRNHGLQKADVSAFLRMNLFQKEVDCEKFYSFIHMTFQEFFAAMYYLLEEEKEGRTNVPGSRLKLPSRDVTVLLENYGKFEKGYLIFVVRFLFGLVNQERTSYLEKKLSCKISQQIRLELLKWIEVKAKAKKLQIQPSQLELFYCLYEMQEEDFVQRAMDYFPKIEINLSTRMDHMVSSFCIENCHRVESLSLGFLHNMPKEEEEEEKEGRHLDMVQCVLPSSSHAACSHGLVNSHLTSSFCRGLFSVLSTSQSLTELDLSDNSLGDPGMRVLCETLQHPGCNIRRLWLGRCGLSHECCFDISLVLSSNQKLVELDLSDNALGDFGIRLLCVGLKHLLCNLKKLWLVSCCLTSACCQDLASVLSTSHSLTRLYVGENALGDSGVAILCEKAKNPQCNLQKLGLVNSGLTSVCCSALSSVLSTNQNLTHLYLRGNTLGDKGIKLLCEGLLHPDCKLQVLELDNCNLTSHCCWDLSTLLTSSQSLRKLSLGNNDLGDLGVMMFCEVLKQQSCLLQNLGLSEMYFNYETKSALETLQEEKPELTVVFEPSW
Protocol: as §1
(§2) The inventors of the present invention evaluated the inhibitory effects of compound C3 in an in vitro model of NLRP3 induction (LPS + ATP), and in an […] model of NLRP1 induction (ValboroPro or Vbp).

NLRP1 = target: T2, NLRP1 (Homo sapiens, UniProt Q9C000); assay: in vitro model of NLRP1 induction (ValboroPro) in THP-1 macrophages, protein expression by western blot; format: cell-based; conditions: ValboroPro (Vbp) induction; dose-dependent; Figure 3
T2 construct: the THP-1 cell line (monocytes) was used and differentiated into macrophages; endogenous in cells; host or cells: THP-1 monocytes differentiated into macrophages with PMA
T2 sequence (Q9C000 1-1473): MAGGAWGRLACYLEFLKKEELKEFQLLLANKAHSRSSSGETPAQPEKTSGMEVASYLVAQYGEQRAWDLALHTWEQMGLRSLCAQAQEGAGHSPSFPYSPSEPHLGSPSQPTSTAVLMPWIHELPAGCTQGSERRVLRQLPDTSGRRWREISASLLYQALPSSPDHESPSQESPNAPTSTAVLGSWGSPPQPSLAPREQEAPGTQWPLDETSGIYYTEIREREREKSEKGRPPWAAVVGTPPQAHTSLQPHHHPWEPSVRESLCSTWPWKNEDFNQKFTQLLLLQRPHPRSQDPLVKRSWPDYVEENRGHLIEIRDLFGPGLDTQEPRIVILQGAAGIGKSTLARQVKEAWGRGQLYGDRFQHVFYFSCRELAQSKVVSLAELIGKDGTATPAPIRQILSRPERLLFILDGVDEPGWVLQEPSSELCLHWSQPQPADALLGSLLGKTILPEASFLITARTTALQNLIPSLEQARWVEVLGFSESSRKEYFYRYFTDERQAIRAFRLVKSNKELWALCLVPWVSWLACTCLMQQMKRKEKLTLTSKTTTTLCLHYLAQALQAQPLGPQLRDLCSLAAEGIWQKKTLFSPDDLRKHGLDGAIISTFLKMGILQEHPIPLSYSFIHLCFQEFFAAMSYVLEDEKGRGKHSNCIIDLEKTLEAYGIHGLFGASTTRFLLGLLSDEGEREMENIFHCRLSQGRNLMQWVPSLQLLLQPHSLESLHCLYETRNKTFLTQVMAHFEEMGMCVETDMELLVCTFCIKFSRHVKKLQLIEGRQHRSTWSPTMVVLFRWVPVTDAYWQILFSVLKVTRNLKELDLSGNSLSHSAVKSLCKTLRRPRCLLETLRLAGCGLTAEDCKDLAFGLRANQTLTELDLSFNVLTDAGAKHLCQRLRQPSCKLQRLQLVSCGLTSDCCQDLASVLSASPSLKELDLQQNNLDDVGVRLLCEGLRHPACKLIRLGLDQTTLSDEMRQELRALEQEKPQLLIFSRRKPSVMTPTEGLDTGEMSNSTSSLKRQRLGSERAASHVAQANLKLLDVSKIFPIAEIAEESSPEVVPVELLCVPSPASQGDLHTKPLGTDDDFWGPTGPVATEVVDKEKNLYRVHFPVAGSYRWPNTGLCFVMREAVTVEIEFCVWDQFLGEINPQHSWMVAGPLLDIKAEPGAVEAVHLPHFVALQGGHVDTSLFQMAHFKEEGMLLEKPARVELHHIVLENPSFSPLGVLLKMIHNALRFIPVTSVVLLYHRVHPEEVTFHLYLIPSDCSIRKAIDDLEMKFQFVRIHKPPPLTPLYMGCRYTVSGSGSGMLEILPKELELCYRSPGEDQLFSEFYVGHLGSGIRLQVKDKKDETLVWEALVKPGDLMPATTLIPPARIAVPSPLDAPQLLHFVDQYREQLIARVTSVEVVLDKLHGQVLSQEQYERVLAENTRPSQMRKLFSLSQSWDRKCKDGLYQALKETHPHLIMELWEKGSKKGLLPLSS
Protocol: as §1, §2

[1] = tested on: AIM-2, NLRP2, NLRC3 or NLRC4; assay: expression of other inflammasome proteins (western blot, Figure 5); format: cell-based
Protocol: as §1
This is reflected by the increased ability of C3 to inhibit the expression of NLRP1, NLRP3, IL-1β and IL-18 compared to MCC950 and C5 (Figure 5 and Figure 8).

THP-1 cell line = assay: in vitro toxicity (cell viability); format: cell-based; conditions: regardless of the dose tested; Figure 6
NEK7 to NLRP3 = target: T3, NEK7 to NLRP3 (Homo sapiens, UniProt Q96P20); assay: NEK7 co-immunoprecipitation; format: binding; conditions: Figure 7
T3 construct: For biological assays, the THP-1 cell line (monocytes) was used; endogenous in cells
T3 sequence (Q96P20 whole entry): as the sequence (Q96P20 whole entry) above
Description: One of the possible mechanisms for NLRP3 inhibition is the inhibition of its binding to NEK7, since it has been shown that NEK7 interacts with NLRP3 to modulate NLRP3 inflammasome activation.

[2] = ageing mouse model (age-related metabolic dysfunction); format: in vivo, C57BL/6J mice
Protocol: (§3) For a better characterization of the effect of C3, the inventors determined its effect in two in vivo models: ageing mice (to evaluate the effect in age-related metabolic dysfunction), and ovarian aging mice (to evaluate the effect in infertility because of ovarian aging).
18-month-old C57BL/6J mice were treated with C3 (10 mg/Kg/day i.p.) or with a vehicle solution (saline) for over 4 weeks.

[3] = ovarian ageing mouse model; format: in vivo, mice
Description: as §3
The second model used to evaluate the effect of C3 was related to ovarian aging. The reason behind this is that NLRP1 and NLRP3 is over-expressed during ovarian ageing (Figure 15).
For this, the inventors used 9-month-old adult mice to which C3 was administered for one month.

[4] = 18-month-old mice, 10 mg/Kg/day i.p., over 4 weeks, vs vehicle, Figure 10
[5] = ageing mice, 10 mg/Kg/day i.p., Figure 12
[6] = microscopic liver sections, Figure 12
[7] = old mice, 10 mg/Kg/day i.p., Figure 11
[8] = 9-month-old mice, administered for one month, Figure 13
[9] = histological staining, vs vehicle, Figure 14

COc1ccc(CNS(C)(=O)=O)cc1 [Compound C1, N-(4-methoxybenzyl) methanesulfonamide]
IL-1β cytokine release (NLRP3 inflammasome): reduction

CS(=O)(=O)NCc1ccc2c(c1)OCO2 [Compound C2, N-(4,5-methylenedioxybenzyl) methanesulfonamide]
IL-1β cytokine release (NLRP3 inflammasome): reduction

CS(=O)(=O)NCc1cccc2ccccc12 [Compound C3, N-(naphthalen-1-ylmethyl) methanesulfonamide]
expression of NLRP3 (NLRP3; LPS + ATP induction, dose-dependent, Figure 3): inhibited the expression
expression of the inflammasome activation-associated protein IL-1β (NLRP3; LPS+ATP or VbP induction, dose-dependent, Figure 3): reduced the expression
inhibitory capacity (expression of NLRP1, NLRP3, IL-1β and IL-18) (NLRP3; compared to MCC950 and C5, Figure 5 and Figure 8): increased inhibitory capacity
expression of NLRP1 (NLRP1): inhibited the expression
IC50 (NLRP3 inflammasome; Figure 4A, read-out: IC50 (IL-1β) release into the culture medium): 0.00538 µM
IC50 (NLRP3 inflammasome; Figure 4B, read-out: IC50 (IL-18) release into the culture medium): 4.45 µM
modulation of other inflammasome proteins such as AIM-2, NLRP2, NLRC3 or NLRC4 [1]: did not result in the modulation
cell viability (THP-1 cell line): above 85%
binding of NEK7 to NLRP3 (NEK7 to NLRP3): inhibited the binding
abdominal fat [2, 4]: significantly reduced
body weight [2, 4]: significantly reduced
NLRP1 protein expression [2, 5]: significant reduction
NLRP3 protein expression [2, 5]: significant reduction
serum IL1β levels [2, 5]: significant reduction
age-associated hepatic fibrosis [2, 6]: significantly reduced
age-associated hepatic steatosis [2, 6]: significantly reduced
glucose levels upon glucose challenges at the OGTT peak (>15 min) ([2]; old mice, 10 mg/Kg/day i.p., vs control, Figure 11): significantly decreased
serum leptin/adiponectin [2, 7]: reduced
serum levels of adiponectin [2, 7]: reduced
serum levels of leptin [2, 7]: reduced
AMH receptor [3, 8]: increase
Follicle-stimulating hormone (FSH) [3, 8]: reduction
antimüllerian hormone (AMH) [3, 8]: significant increase
protein levels of active Caspase 1 [3, 8]: decreased
protein levels of active IL-1β [3, 8]: decreased
improvement of the ovarian reserve by AMH hormone ([3]; compared to NLRP1 KO and NLRP3 KO mice, Figure 15): significantly higher improvement
percentage of atretic follicles [3, 9]: lower percentage
percentage of follicles [3, 9]: higher percentage

CS(=O)(=O)NCc1ccc(Cl)cc1 [Compound C4, N-(4-chlorobenzyl) methanesulfonamide]
IL-1β cytokine release (NLRP3 inflammasome): reduction

O=S(=O)(Cc1ccc2ccccc2c1)NCc1ccccc1 [Compound C7, N-benzyl-1-(naphthalen-2-yl) methanesulfonamide]
IL-1β cytokine release (NLRP3 inflammasome): reduction

From patent EP4559461A1, “DUAL NLRP1 AND NLRP3 INHIBITORS FOR USE AS A MEDICAMENT” (Servicio Andaluz de Salud, priority 2023, dated 2025)
